Results as given in patent US20240139167A1, “LYSOSOME-ASSOCIATED MEMBRANE PROTEIN TARGETING COMPOUNDS AND USES THEREOF” (HADASIT MEDICAL RESEARCH SERVICES AND DEVELOPMENT LTD., priority 2021, published 2024).

Columns and labels:
[1] = Irwin test (abnormal spontaneous behavior); type: in vivo, mice; parameters: Wounds / Transfer behavior / Tremor / Gait / Tail elevation / Touch escape / Trunk curl / Righting reflex / Salivation / Extension reflex: scale not given here
Text: The inventors have tested Compound 1 (FIG. 1A) for its capacity to correct the deficient motor phenotypes and short lifespan in the APBD mouse model Gbe^ys/ys. Compound 1 is one of 19 PG reducing HTS hits previously discovered by the inventors. It was selected by in silico ADMET (Absorption, Distribution, Metabolism, Excretion, and Toxicity) tests run on these hits to predict which of them should be safe and pharmacokinetically and pharmacodynamically preferred and is therefore worth further pursuit (FIG. 8, compound “A”). […] Following 1 h and 24 h treatments, mice were also examined for abnormal spontaneous behavior, such as immobility, excessive running, stereotyped movements, and abnormal posture (Irwin tests).

APBD primary fibroblasts = assay: Autophagic flux (LC3II/LC3I with lysosomal inhibitors, p62); type: cell-based, human
Text: FIGS. 6A-6E include bar graphs of autophagic flux, determined by the extent of lysosomal inhibitors-dependent increase in the ratio of lipidated to non-lipidated LC3 (LC3II/LC3I) (6A); representative TEM images of liver tissue from 9.5 month old Gbe^ys/ys mice treated with Compound 11, or 5% DMSO vehicle (6B), G: Glycogen (alpha particles) and polyglucosan (structures with variable electron densities), L: Lysosomes, M: Mitochondria; right panel: lysosomal glycogen stain was quantified by ImageJ “count particle” tool; micrograph of LAMP1 knocked down and control APBD primary skin fibroblasts treated or not with Compound 1 and lysosomal inhibitors (LI) and quantification of 3 experiments and results of Student's t-tests. *, p<0.1; **, p<0.05; ***, p<0.01 (6C); graphs of lysosomal pH changes determined in APBD primary fibroblasts transduced with lentiviruses encoding for GFP or GFP-shLAMP1 and treated or not with Compound 1 for 24 h and confocal microscope images of cells treated with Lysosensor and stained for PAS (6D); and bar graph of ATP production rate assay in LAMP1-KD and GFP (Control) cells treated for 24 h (chronic) or on assay (acute) with Compound 1 (6E).

[2] = test system: primary human non-small-cell lung cancer (NSCLC) cells; assay: LC3, p62 and PAS staining of lung cancer cells; type: cell-based
Procedure: FIGS. 20A-20B include fluorescent micrographs showing primary non-small cell-lung cancer. Cells were treated and stained for the autophagic substrates LC3 (20A) and p62 (20B) as in 19A-19B.
NAD+ and NADH are key precursors for the electron transfer chain, TCA cycle, glycolysis, amino acid synthesis, fatty acid synthesis, and nucleotide synthesis. The NAD+/NADH ratio reports the extent of overall catabolism and the balance between glycolysis and OxPhos. The increase in the NAD+/NADH ratio means acceleration of electron flow in the mitochondrial electron transport chain (note, not mitochondrial ATP production) and of glycolysis to better manage metabolic demands. Furthermore, Sirt1 induction, often associated with increased NAD+/NADH ratio, is a well-documented and innovative anti-aging, calorie restriction-mimic and anti-cancer therapeutic strategy (see for example Hyun et al., (2020)). Thus, the results in Gsd1a cells (FIG. 21), showing induction of the NAD+/NADH ratio, as well as Sirt1, indicate that 144DG11 is a promising therapy for a plethora of different metabolic disorders, aging-related complications, and cancer.

Q: Which Appearance of fur ([1]; 50 mg/kg, 1 h) does the source give for COCCN(Cc1sccc1C)C(=O)c1cc(C)nc(O)c1 [Compound 1] here?
A: 2

Q: What about the Body position ([1]; 50 mg/kg, 1 h) of the same compound?
A: 3.5

Q: And the Coat color ([1]; 50 mg/kg, 1 h)?
A: Black

Q: And the Extension reflex ([1]; 50 mg/kg, 1 h)?
A: 2

Q: And the Gait ([1]; 50 mg/kg, 1 h)?
A: 0

Q: And the “Patches of missing fur on body” value ([1]; 50 mg/kg, 1 h)?
A: 0

Q: And the “Patches of missing fur on face” value ([1]; 50 mg/kg, 1 h)?
A: 0

Q: What about the Pelvic elevation ([1]; 50 mg/kg, 1 h) of the same compound?
A: 2

Q: What about the Piloerection ([1]; 50 mg/kg, 1 h) of the same compound?
A: 0

Q: What about the Positional passivity ([1]; 50 mg/kg, 1 h) of the same compound?
A: 0

Q: What about the Presence of whiskers ([1]; 50 mg/kg, 1 h) of the same compound?
A: 3

Q: And the Righting reflex ([1]; 50 mg/kg, 1 h)?
A: 0

Q: And the Salivation ([1]; 50 mg/kg, 1 h)?
A: 0

Q: What about the Tail elevation ([1]; 50 mg/kg, 1 h) of the same compound?
A: 1

Q: And the Touch escape ([1]; 50 mg/kg, 1 h)?
A: 2

Q: What about the Transfer behavior ([1]; 50 mg/kg, 1 h) of the same compound?
A: 5

Q: What about the Tremor ([1]; 50 mg/kg, 1 h) of the same compound?
A: 0

Q: And the Trunk curl ([1]; 50 mg/kg, 1 h)?
A: 0

Q: And the Wounds ([1]; 50 mg/kg, 1 h)?
A: 0

Q: And the Appearance of fur ([1]; 50 mg/kg, 24 h)?
A: 2

Q: And the Body position ([1]; 50 mg/kg, 24 h)?
A: 3.5

Q: And the Coat color ([1]; 50 mg/kg, 24 h)?
A: Black

Q: And the Extension reflex ([1]; 50 mg/kg, 24 h)?
A: 2

Q: And the Gait ([1]; 50 mg/kg, 24 h)?
A: 0

Q: And the “Patches of missing fur on body” value ([1]; 50 mg/kg, 24 h)?
A: 0

Q: And the “Patches of missing fur on face” value ([1]; 50 mg/kg, 24 h)?
A: 0

Q: What about the Pelvic elevation ([1]; 50 mg/kg, 24 h) of the same compound?
A: 2

Q: What about the Piloerection ([1]; 50 mg/kg, 24 h) of the same compound?
A: 0

Q: What about the Positional passivity ([1]; 50 mg/kg, 24 h) of the same compound?
A: 0

Q: What about the Presence of whiskers ([1]; 50 mg/kg, 24 h) of the same compound?
A: 3

Q: What about the Righting reflex ([1]; 50 mg/kg, 24 h) of the same compound?
A: 0

Q: And the Salivation ([1]; 50 mg/kg, 24 h)?
A: 0

Q: What about the Tail elevation ([1]; 50 mg/kg, 24 h) of the same compound?
A: 1

Q: And the Touch escape ([1]; 50 mg/kg, 24 h)?
A: 2

Q: And the Transfer behavior ([1]; 50 mg/kg, 24 h)?
A: 5

Q: And the Tremor ([1]; 50 mg/kg, 24 h)?
A: 0

Q: And the Trunk curl ([1]; 50 mg/kg, 24 h)?
A: 0

Q: What about the Wounds ([1]; 50 mg/kg, 24 h) of the same compound?
A: 0

Q: What about the Appearance of fur ([1]; 250 mg/kg, 1 h) of the same compound?
A: 2

Q: What about the Body position ([1]; 250 mg/kg, 1 h) of the same compound?
A: 3

Q: And the Coat color ([1]; 250 mg/kg, 1 h)?
A: Black

Q: What about the Extension reflex ([1]; 250 mg/kg, 1 h) of the same compound?
A: 2

Q: And the Gait ([1]; 250 mg/kg, 1 h)?
A: 0

Q: And the “Patches of missing fur on body” value ([1]; 250 mg/kg, 1 h)?
A: 0

Q: What about the “Patches of missing fur on face” value ([1]; 250 mg/kg, 1 h) of the same compound?
A: 0

Q: And the Pelvic elevation ([1]; 250 mg/kg, 1 h)?
A: 2

Q: And the Piloerection ([1]; 250 mg/kg, 1 h)?
A: 0

Q: And the Positional passivity ([1]; 250 mg/kg, 1 h)?
A: 0

Q: What about the Presence of whiskers ([1]; 250 mg/kg, 1 h) of the same compound?
A: 3

Q: What about the Righting reflex ([1]; 250 mg/kg, 1 h) of the same compound?
A: 0

Q: What about the Salivation ([1]; 250 mg/kg, 1 h) of the same compound?
A: 0

Q: What about the Tail elevation ([1]; 250 mg/kg, 1 h) of the same compound?
A: 1

Q: And the Touch escape ([1]; 250 mg/kg, 1 h)?
A: 2

Q: What about the Transfer behavior ([1]; 250 mg/kg, 1 h) of the same compound?
A: 5

Q: What about the Tremor ([1]; 250 mg/kg, 1 h) of the same compound?
A: 0

Q: And the Trunk curl ([1]; 250 mg/kg, 1 h)?
A: 0

Q: And the Wounds ([1]; 250 mg/kg, 1 h)?
A: 0

Q: And the Appearance of fur ([1]; 250 mg/kg, 24 h)?
A: 2

Q: And the Body position ([1]; 250 mg/kg, 24 h)?
A: 3

Q: And the Coat color ([1]; 250 mg/kg, 24 h)?
A: Black

Q: And the Extension reflex ([1]; 250 mg/kg, 24 h)?
A: 2

Q: What about the Gait ([1]; 250 mg/kg, 24 h) of the same compound?
A: 0

Q: And the “Patches of missing fur on body” value ([1]; 250 mg/kg, 24 h)?
A: 0

Q: And the “Patches of missing fur on face” value ([1]; 250 mg/kg, 24 h)?
A: 0

Q: What about the Pelvic elevation ([1]; 250 mg/kg, 24 h) of the same compound?
A: 2

Q: What about the Piloerection ([1]; 250 mg/kg, 24 h) of the same compound?
A: 0

Q: What about the Positional passivity ([1]; 250 mg/kg, 24 h) of the same compound?
A: 0

Q: And the Presence of whiskers ([1]; 250 mg/kg, 24 h)?
A: 3

Q: What about the Righting reflex ([1]; 250 mg/kg, 24 h) of the same compound?
A: 0

Q: What about the Salivation ([1]; 250 mg/kg, 24 h) of the same compound?
A: 0

Q: What about the Tail elevation ([1]; 250 mg/kg, 24 h) of the same compound?
A: 1

Q: And the Touch escape ([1]; 250 mg/kg, 24 h)?
A: 2

Q: What about the Transfer behavior ([1]; 250 mg/kg, 24 h) of the same compound?
A: 5

Q: What about the Tremor ([1]; 250 mg/kg, 24 h) of the same compound?
A: 0

Q: What about the Trunk curl ([1]; 250 mg/kg, 24 h) of the same compound?
A: 0

Q: And the Wounds ([1]; 250 mg/kg, 24 h)?
A: 0

Q: What about the “adverse effect in Irwin tests” value ([1]; 1 h and 24 h treatments) of the same compound?
A: did not cause any adverse effect

Q: And the “autophagic flux (sensitivity of LC3ii/LC3i ratio to lysosomal inhibitors)” value (APBD primary fibroblasts)?
A: increased autophagic flux

Q: And the “level of the autophagy substrate p62” value (APBD primary fibroblasts)?
A: lowering the level of the autophagy substrate p62

Q: And the “autophagy (LC3, p62)” value [2]?
A: induced autophagy

Q: What about the glycogen levels [2] of the same compound?
A: did not lower glycogen levels
